Read-outs that look alike come from different tables or passages of the source.
Legend:
[1] = biological target: T1, glucosylceramide synthase (GCS) (Homo sapiens, UniProt Q16739); assay: GCS enzyme inhibition assay (A549 cell lysate, NBD C6-ceramide, HPLC fluorescence); format: biochemical; conditions: inhibitory activity against GCS, 37° C., 90 minutes
T1 construct: The obtained supernatant was used; host or cells: A549 cells (lysate supernatant after sonication)
T1 sequence (Q16739 1-394): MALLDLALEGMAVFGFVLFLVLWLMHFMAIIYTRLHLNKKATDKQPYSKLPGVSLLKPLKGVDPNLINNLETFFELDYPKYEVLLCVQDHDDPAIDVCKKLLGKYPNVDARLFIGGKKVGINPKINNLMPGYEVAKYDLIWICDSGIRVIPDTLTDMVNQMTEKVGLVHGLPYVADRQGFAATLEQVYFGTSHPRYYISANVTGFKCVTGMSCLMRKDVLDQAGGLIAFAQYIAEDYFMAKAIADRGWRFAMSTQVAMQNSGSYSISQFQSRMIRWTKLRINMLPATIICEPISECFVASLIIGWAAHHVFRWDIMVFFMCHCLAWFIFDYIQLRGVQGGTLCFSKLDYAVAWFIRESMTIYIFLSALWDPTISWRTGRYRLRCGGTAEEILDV
Method in brief: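 Percent GCS activity was derived from the GlcCer share of Cer plus GlcCer areas, scaled from ibiglustat (0%) to DMSO (100%). Enzyme came from sonicated A549 lysate in 50 mM HEPES pH 7.3; 90 min incubation at 37° C, chloroform/methanol stop and extraction.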

[2] = tested on: GM1 production in Jurkat cells; assay: cells; format: cell-based

| Compound | IC50 [1] [nM] | IC50 ([2]; Homo sapiens, Jurkat, 72 h) [nM] | IC50 [2] [nM] |
| --- | --- | --- | --- |
| CC1(C)COc2cc(-c3ccc(F)cc3)ccc2C1NC(=O)O[C@@H]1CN2CCC1CC2 (stereo partly drawn) [Example 214, (S)-quinuclidin-3-yl (7-(4-fluorophenyl)-3,3-dimethylchroman-4-yl)carbamate] | 0.55 | 1.81 |  |
| CC1(C)COc2cc(-c3ccc4c(c3)OCCO4)ccc2C1NC(=O)O[C@@H]1CN2CCC1CC2 (stereo partly drawn) [Example 172, (S)-quinuclidin-3-yl (7-(2,3-dihydrobenzo[b][1,4]dioxin-6-yl)-3,3-dimethylchroman-4-yl)carbamate] | 0.37 | 1.92 |  |
| O=C(NC1CCOc2cc(-c3ccc(Cl)c(Cl)c3)ccc21)O[C@@H]1CN2CCC1CC2 (stereo partly drawn) [Example 28, (S)-quinuclidin-3-yl (7-(3,4-dichlorophenyl)chroman-4-yl)carbamate] | 5.19 | 24.1 |  |
| COc1ncc(-c2ccc3c(c2)OCCC3NC(=O)O[C@@H]2CN3CCC2CC3)cc1Cl (stereo partly drawn) [Example 80, (S)-quinuclidin-3-yl (7-(5-chloro-6-methoxypyridin-3-yl)chroman-4-yl)carbamate] | 5.75 | 44.2 |  |
| COc1ccc(F)cc1-c1ccc2c(c1)OCC(C)(C)C2NC(=O)O[C@@H]1CN2CCC1CC2 (stereo partly drawn) [Example 252, (S)-quinuclidin-3-yl (7-(5-fluoro-2-methoxyphenyl)-3,3-dimethylchroman-4-yl)carbamate] | 0.54 | 1.4 |  |
| CC1(C)COc2cc(-c3cccc(F)c3Cl)ccc2C1NC(=O)O[C@@H]1CN2CCC1CC2 (stereo partly drawn) [Example 237, (S)-quinuclidin-3-yl (7-(2-chloro-3-fluorophenyl)-3,3-dimethylchroman-4-yl)carbamate] | 0.63 | 5.1 |  |
| CC1(C)COc2cc(-c3ccc(Cl)c(Cl)c3)ccc2C1NC(=O)O[C@@H]1CN2CCC1CC2 (stereo partly drawn) [Example 195, (S)-quinuclidin-3-yl (7-(3,4-dichlorophenyl)-3,3-dimethylchroman-4-yl)carbamate] | 1.14 | 1.39 |  |
| CC1(C)COc2cc(-c3cccc(C(F)(F)F)c3)ccc2C1NC(=O)O[C@@H]1CN2CCC1CC2 (stereo partly drawn) [Example 104, (S)-quinuclidin-3-yl (3,3-dimethyl-7-(3-(trifluoromethyl)phenyl)chroman-4-yl)carbamate] | 1 | 1.02 |  |
| O=C(NC1CCOc2cc(-c3ccc(C(F)(F)F)cc3)ccc21)O[C@@H]1CN2CCC1CC2 (stereo partly drawn) [Example 15, (S)-quinuclidin-3-yl (7-(4-(trifluoromethyl)phenyl)chroman-4-yl)carbamate] | 11.7 | 38.9 |  |
| CC1(C)COc2cc(-c3cccc(Cl)c3)c(F)cc2C1NC(=O)O[C@@H]1CN2CCC1CC2 (stereo partly drawn) [Example 332, (S)-quinuclidin-3-yl (6-fluoro-7-(3-chlorophenyl)-3,3-dimethylchroman-4-yl)carbamate] | 0.39 | 0.9 |  |
| CC(C)c1cccc(-c2cc3c(cc2F)C(NC(=O)O[C@@H]2CN4CCC2CC4)C(C)(C)CO3)c1 (stereo partly drawn) [Example 339, (S)-quinuclidin-3-yl (6-fluoro-7-(3-isopropylphenyl)-3,3-dimethylchroman-4-yl)carbamate] | 0.61 | 0.2 |  |
| CC1(NC(=O)O[C@@H]2CN3CCC2CC3)CCOc2cc(-c3ccccc3C#N)ccc21 (stereo partly drawn) [Example 309, (S)-quinuclidin-3-yl (7-(2-cyanophenyl)-4-methylchroman-4-yl)carbamate] | 5.77 | 37.2 |  |
| O=C(NC1CCOc2cc(-c3ccc(F)c(C(F)(F)F)c3)ccc21)O[C@@H]1CN2CCC1CC2 (stereo partly drawn) [Example 33, (S)-quinuclidin-3-yl (7-(4-fluoro-3-(trifluoromethyl)phenyl)chroman-4-yl)carbamate] | 1.43 | 10.8 |  |
| CC1(C)COc2cc(/C=C/c3ccc(F)cc3F)ccc2C1NC(=O)O[C@@H]1CN2CCC1CC2 (stereo partly drawn) [Example 286, (S)-quinuclidin-3-yl (7-((E)-2,4-difluorostyryl)-3,3-dimethylchroman-4-yl)carbamate] | 0.93 | 3.3 |  |
| CC1(C)COc2cc(/C=C/c3ccc(-c4ccccc4)cc3)ccc2C1NC(=O)O[C@@H]1CN2CCC1CC2 (stereo partly drawn) [Example 282, (S)-quinuclidin-3-yl (7-((E)-2-([1,1′-diphenyl]-4-yl)vinyl)-3,3-dimethylchroman-4-yl)carbamate] | 1.64 | 2 |  |
| CC1(C)COc2cc(-c3cccc(F)c3)ccc2C1NC(=O)O[C@@H]1CN2CCC1CC2 (stereo partly drawn) [Example 102, (S)-quinuclidin-3-yl (7-(3-fluorophenyl)-3,3-dimethylchroman-4-yl)carbamate] | 0.8 | 2.81 |  |

| Compound | IC50 [1] [nM] | IC50 ([2]; Homo sapiens, Jurkat, 72 h) [nM] | IC50 [2] [nM] |
| --- | --- | --- | --- |
| COc1cc2c(cc1-c1ccc(F)cc1)OCC(C)(C)C2NC(=O)O[C@@H]1CN2CCC1CC2 (stereo partly drawn) [Example 350, (S)-quinuclidin-3-yl (7-(4-fluorophenyl)-6-methoxy-3,3-dimethylchroman-4-yl)carbamate] | 0.47 | 7.5 |  |
| CC1(C)COc2cc(-c3ccc(OC(F)(F)F)cc3)ccc2C1NC(=O)O[C@@H]1CN2CCC1CC2 (stereo partly drawn) [Example 201, (S)-quinuclidin-3-yl (3,3-dimethyl-7-(4-(trifluoromethoxy)phenyl)chroman-4-yl)carbamate] | 0.41 | 1.12 |  |
| CC1(C)COc2cc(-c3cc(C(F)(F)F)ccc3Cl)ccc2C1NC(=O)O[C@@H]1CN2CCC1CC2 (stereo partly drawn) [Example 139, (S)-quinuclidin-3-yl (7-(2-chloro-5-(trifluoromethyl)phenyl)-3,3-dimethylchroman-4-yl)carbamate] | 0.62 | 0.3 |  |
| CC(C)Cc1ccc(-c2ccc3c(c2)OCC(C)(C)C3NC(=O)O[C@@H]2CN3CCC2CC3)cc1 (stereo partly drawn) [Example 257, (S)-quinuclidin-3-yl (7-(4-isobutylphenyl)-3,3-dimethylchroman-4-yl)carbamate] | 0.36 | 0.7 |  |
| CCCOc1c(C)cc(-c2ccc3c(c2)OCC(C)(C)C3NC(=O)O[C@@H]2CN3CCC2CC3)cc1C (stereo partly drawn) [Example 140, (S)-quinuclidin-3-yl (7-(3,5-dimethyl-4-propoxyphenyl)-3,3-dimethylchroman-4-yl)carbamate] | 0.88 | 0.15 |  |
| CC1(NC(=O)O[C@@H]2CN3CCC2CC3)CCOc2cc(-c3coc4ccccc34)ccc21 (stereo partly drawn) [Example 304, (S)-quinuclidin-3-yl (7-(benzofuran-3-yl)-4-methylchroman-4-yl)carbamate] | 0.38 | 2.1 |  |
| O=C(NC1CCOc2cc(-c3ccc4nsnc4c3)ccc21)O[C@@H]1CN2CCC1CC2 (stereo partly drawn) [Example 62, (S)-quinuclidin-3-yl (7-(benzo[c][1,2,5]thiadiazol-5-yl)chroman-4-yl)carbamate] | 1.03 | 21.2 |  |
| CCCCc1ccc(-c2cc3c(cc2F)C(NC(=O)O[C@@H]2CN4CCC2CC4)C(C)(C)CO3)cc1 (stereo partly drawn) [Example 343, (S)-quinuclidin-3-yl (7-(4-butylphenyl)-6-fluoro-3,3-dimethylchroman-4-yl)carbamate] | 0.12 | 0.1 |  |
| CC1(C)COc2cc(-c3cc(F)c(F)cc3F)ccc2C1NC(=O)O[C@@H]1CN2CCC1CC2 (stereo partly drawn) [Example 200, (S)-quinuclidin-3-yl (3,3-dimethyl-7-(2,4,5-trifluorophenyl)chroman-4-yl)carbamate] | 0.49 | 1.94 |  |
| Cn1ncc2c(-c3ccc4c(c3)OCC(C)(C)C4NC(=O)O[C@@H]3CN4CCC3CC4)cccc21 (stereo partly drawn) [Example 159, (S)-quinuclidin-3-yl (3,3-dimethyl-7-(1-methyl-1H-indazol-4-yl)chroman-4-yl)carbamate] | 0.57 | 0.55 |  |
| N#Cc1cccc(-c2ccc3c(c2)OCCC3NC(=O)O[C@@H]2CN3CCC2CC3)c1 (stereo partly drawn) [Example 39, (S)-quinuclidin-3-yl (7-(3-cyanophenyl)chroman-4-yl)carbamate] | 1.82 | 7.73 |  |
| CC1(C)COc2cc(-c3ccc(C4CCOCC4)cc3)ccc2C1NC(=O)O[C@@H]1CN2CCC1CC2 (stereo partly drawn) [Example 202, (S)-quinuclidin-3-yl (3,3-dimethyl-7-(4-(tetrahydro-2H-pyran-4-yl)phenyl)chroman-4-yl)carbamate] | 0.28 | 0.47 |  |
| COc1ccc(Cl)c(-c2ccc3c(c2)OCCC3(C)NC(=O)O[C@@H]2CN3CCC2CC3)c1 (stereo partly drawn) [Example 301, (S)-quinuclidin-3-yl (7-(2-chloro-5-methoxyphenyl)-4-methylchroman-4-yl)carbamate] | 0.8 | 17.5 |  |
| CC1(C)COc2cc(-c3cccc4ccncc34)ccc2C1NC(=O)O[C@@H]1CN2CCC1CC2 (stereo partly drawn) [Example 160, (S)-quinuclidin-3-yl (7-(isoquinolin-8-yl)-3,3-dimethylchroman-4-yl)carbamate] | 0.52 | 0.54 |  |
| CN1C(=O)COc2ccc(-c3ccc4c(c3)OCC(C)(C)C4NC(=O)O[C@@H]3CN4CCC3CC4)cc21 (stereo partly drawn) [Example 216, (S)-quinuclidin-3-yl (3,3-dimethyl-7-(4-methyl-3-oxo-3,4-dihydro-2H-benzo[b][1,4]oxazin-6-yl)chroman-4-yl)carbamate] | 1.51 | 8.58 |  |
| CC1(C)COc2cc(-c3cncc4ccccc34)ccc2C1NC(=O)O[C@@H]1CN2CCC1CC2 (stereo partly drawn) [Example 192, (S)-quinuclidin-3-yl (7-(isoquinolin-4-yl)-3,3-dimethylchroman-4-yl)carbamate] | 0.92 |  | 1.35 |

— patent US12673944B2, “Compounds having inhibitory activity against glucosylceramide synthase or pharmaceutically acceptable salt thereof, processes for preparing the same, and pharmaceutical compositions comprising the same” (YUHAN CORPORATION, priority 2019, dated 2026)
